For the test, the target named is T1, Tau (Homo sapiens, UniProt P10636).
T1 construct: gene MAPT; full-length wildtype Tau (hTau40; 441 aa; 2N4R isoform, UniprotKB P10636-8)
The experiment in a line: microscale thermophoresis (MST) with fluorescently labelled Tau; supported by trDLS, microscopy and TEM of Tau:suramin condensates. Format: binding.

T1 sequence (P10636 2-441 isoform P10636-8): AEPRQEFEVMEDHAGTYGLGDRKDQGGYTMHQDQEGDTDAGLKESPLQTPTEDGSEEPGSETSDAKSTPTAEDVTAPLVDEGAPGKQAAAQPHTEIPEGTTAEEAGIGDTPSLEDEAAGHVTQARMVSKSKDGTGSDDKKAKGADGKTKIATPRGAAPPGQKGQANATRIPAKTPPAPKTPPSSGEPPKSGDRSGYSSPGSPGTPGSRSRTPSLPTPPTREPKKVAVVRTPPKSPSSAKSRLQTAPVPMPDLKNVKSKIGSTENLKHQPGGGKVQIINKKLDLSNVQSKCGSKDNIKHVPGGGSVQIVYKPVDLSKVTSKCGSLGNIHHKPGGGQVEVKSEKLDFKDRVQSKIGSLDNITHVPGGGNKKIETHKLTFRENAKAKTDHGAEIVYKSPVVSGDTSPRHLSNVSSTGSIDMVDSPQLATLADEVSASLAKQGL

`Cc1ccc(C(=O)Nc2ccc(S(=O)(=O)O)c3cc(S(=O)(=O)O)cc(S(=O)(=O)O)c23)cc1NC(=O)c1cccc(NC(=O)Nc2cccc(C(=O)Nc3cc(C(=O)Nc4ccc(S(=O)(=O)O)c5cc(S(=O)(=O)O)cc(S(=O)(=O)O)c45)ccc3C)c2)c1` [suramin]: the Kd is approximately 17 µM.

The values are drawn from PMC9997437, “Initiation and modulation of Tau protein phase separation by the drug suramin” (Scientific Reports, 2023).
